Laboratory results taken from patent US7410974B2, “Halogenated Quinazolinyl nitrofurans as antibacterial agents” (Ulysses Pharmaceutical Products, Inc., priority 2003, dated 2008).
In brackets after ≈: the same amount, converted by molar mass. Like-named read-outs stand apart in the source and are kept apart here.

Legend:
[1] = test system: S. epidermidis ATCC 12228; assay: MIC broth microdilution (NCCLS); assay type: cell-based, Staphylococcus epidermidis; details: Staphylococcus epidermidis, ATCC12228; S. epidermidis ATCC 12228; read-out: MIC
Procedure, shortened: (§1)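 Susceptibility by NCCLS microdilution: checked inoculum 10^5-10^6 CFU/ml, 24 h at 35° C, and growth assessed at 650 nm and by eye. Haemophilus was tested in HTM medium and Listeria with laked horse blood, each incubated under 5% CO2.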

E. faecalis ATCC 29212 = assay: MIC broth microdilution (NCCLS); assay type: cell-based, Enterococcus faecalis; details: Enterococcus faecalis, ATCC29212; E. faecalis ATCC 29212; read-out: MIC
S. aureus ATCC 29213 = assay: MIC broth microdilution (NCCLS); assay type: cell-based, Staphylococcus aureus; details: Staphylococcus aureus, ATCC29213; S. aureus ATCC 29213; read-out: MIC
H. influenzae ATCC 49766 [2] = assay: MIC broth microdilution (NCCLS), fastidious bacteria; assay type: cell-based; details: Haemophilus influenzae, ATCC49766, HTM, 5% CO2
Procedure, shortened: (§2)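 NCCLS broth microdilution; inoculum 10^5-10^6 CFU/ml; 2-fold serial dilutions; 35° C, 24 h; A650 plus visual read. Media: MHBCA (S. saprophyticus, E. faecium), MHBCA + 2% laked horse blood (Listeria), HTM (Haemophilus), the last two under 5% CO2.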

H. influenzae ATCC 49247 [3] = assay: as above; assay type: cell-based; details: Haemophilus influenzae, ATCC49247, HTM, 5% CO2
Procedure, shortened: as §2

B. catarrhalis ATCC 8176 [4] = assay: as above; assay type: cell-based, Branhamella (Moraxella) catarrhalis; details: Moraxella catarrhalis, ATCC8176, HTM, 5% CO2
Procedure, shortened: as §2

E. coli MC4100 = assay: MIC broth microdilution (NCCLS); assay type: cell-based; details: Escherichia coli; E. coli MC4100, pathotype Reference
Protocol: (§3) Minimal Inhibitory Concentration (MIC) Determination. Bacteria (primary strain panel, TABLE 1). Susceptibility tests were performed following the recommendations from the National Committee for Clinical Standards (NCCLS). The MICs were determined by a broth microdilution technique using a final volume of 100 μl of cation-adjusted Mueller Hinton Broth (MHBCA) and a bacterial inoculum of 10^5-10^6 Colony Forming Units (CFU)/ml. The inocula were verified and precisely determined by applying 10-μl drops of 10-fold dilutions onto Triptic Soy Agar plates. The CFU were counted after an incubation of 24 h at 35° C. Any experiment showing an inoculum that was more or less than 10^5-10^6 CFU/ml was rejected. Control antibiotics and test compounds were prepared at a concentration equivalent to 2-fold the highest desired final concentration. Compounds were then diluted directly in the 96-well microtiter plates by serial 2-fold dilutions using a multichannel pipette. Microtiter plates were incubated during 24 h at 35° C. and growth was recorded by using a microtiterplate reader at 650 nm as well as by visual observation. The MIC was defined as the lowest concentration of compound yielding no visible growth. […] Fastidious bacteria. The medium used for Listeria monocytogenes, Neisseria meningitidis, and Campylobacter jejuni was MHBCA containing 2% laked horse blood. The medium used for Haemophilus influenzae and Branhamella (Moraxella) catarrhalis was HTM as recommended by the NCCLS. Cultures of these fastidious bacteria were incubated at 35° C. in a 5% CO2 atmosphere. […] The medium used for Bacteroides fragilis was Wilkins Chalgren broth and growth was allowed under an anaerobic atmosphere at 35° C. for 48 hours.

S. aureus MRSA COL = assay: MIC broth microdilution (NCCLS); assay type: cell-based, Staphylococcus aureus; details: Staphylococcus aureus, MRSA, S. aureus MRSA COL; read-out: MIC
Procedure, shortened: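 MHBCA, 10^5-10^6 CFU/ml, 2-fold serial dilutions, 24 h at 35° C. Growth read at 650 nm and visually. MIC = lowest concentration with no visible growth.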

E. coli Ec022c (EIEC) = assay: MIC broth microdilution, E. coli strains; assay type: cell-based; details: Escherichia coli, pathotype EIEC
Protocol: as §3
(§4) Finally, compounds were also tested against populations of various clinical strains (antibiotic resistant strain panel, TABLE 1).

[5] = test system: E. coli ATCC 35150 (O157:H7); assay: MIC broth microdilution, E. coli strains; assay type: cell-based; details: Escherichia coli, ATCC35150
Protocol: as §3, §4

E. coli Ec118c (EIEC) = assay: MIC broth microdilution, E. coli strains; assay type: cell-based; details: Escherichia coli, pathotype EIEC
Protocol: as §3, §4

[6] = test system: E. coli d4-OLR-pen10 (O157:H7); assay: MIC broth microdilution, E. coli strains; assay type: cell-based; details: Escherichia coli
Protocol: as §3, §4

E. coli Ec117c (EIEC) = assay: MIC broth microdilution, E. coli strains; assay type: cell-based; details: Escherichia coli, pathotype EIEC
Protocol: as §3, §4

E. coli Ec119c (EIEC) = assay: MIC broth microdilution, E. coli strains; assay type: cell-based; details: Escherichia coli, pathotype EIEC
Protocol: as §3, §4

E. coli Ec027c (EIEC) = assay: MIC broth microdilution, E. coli strains; assay type: cell-based; details: Escherichia coli, pathotype EIEC
Protocol: as §3, §4

[7] = test system: E. coli d25-ALR-pen14 (O157:H7); assay: MIC broth microdilution, E. coli strains; assay type: cell-based; details: Escherichia coli
Protocol: as §3, §4

B. catarrhalis ATCC 8176 [8] = assay: Minimal Bactericidal Concentration (MBC); assay type: cell-based, Branhamella (Moraxella) catarrhalis; details: Moraxella catarrhalis, ATCC8176, 99.9% killing
Protocol: Minimal Bactericidal Concentration (MBC). After the microtiter plates were read for the determination of the MIC, a 10-μl sample of each clear well (at least 5 wells without visible growth) was applied onto TSA plates for viable counts determination.
Petri dishes were incubated at 35° C. for exactly 24 h and bacterial colonies were counted.

[9] = test system: S. saprophyticus ATCC 15305; assay: MIC broth microdilution (NCCLS); assay type: cell-based, Staphylococcus saprophyticus; details: Staphylococcus saprophyticus, ATCC15305; S. saprophyticus ATCC 15305; read-out: MIC
Procedure, shortened: as §2

E. faecium ATCC 35667 = assay: MIC broth microdilution (NCCLS); assay type: cell-based, Enterococcus faecium; details: Enterococcus faecium, ATCC35667, E. faecium ATCC 35667; read-out: MIC
Procedure, shortened: as §2

H. influenzae ATCC 49766 [10] = assay: Minimal Bactericidal Concentration (MBC); assay type: cell-based; details: Haemophilus influenzae, ATCC49766, 99.9% killing
Procedure, shortened: (§5)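 Bactericidal endpoint follows the MIC read: aliquots of every well without visible growth, no fewer than five, go onto TSA. Incubation lasts exactly 24 h at 35° C. Surviving colonies are then counted.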

H. influenzae ATCC 49247 [11] = assay: Minimal Bactericidal Concentration (MBC); assay type: cell-based; details: Haemophilus influenzae, ATCC49247, 99.9% killing
Procedure, shortened: as §5

E. coli ATCC 25922 [12] = assay: MIC broth microdilution (NCCLS); assay type: cell-based, Escherichia coli
C. jejuni ATCC 33291 = assay: MIC broth microdilution (NCCLS), fastidious bacteria; assay type: cell-based; details: Campylobacter jejuni, ATCC33291
Procedure, shortened: as §2

[13] = test system: L. monocytogenes ATCC 13932; assay: as above; assay type: cell-based; details: Listeria monocytogenes, ATCC13932, MHBCA with 2% laked horse blood, 5% CO2
Procedure, shortened: as §2

B. fragilis ATCC 25285 = assay: MIC broth microdilution (NCCLS), anaerobic; assay type: cell-based; details: Bacteroides fragilis
Protocol: as §3

E. coli ATCC 25922 [14] = assay: Minimal Bactericidal Concentration (MBC); assay type: cell-based; details: Escherichia coli, ATCC25922, 99.9% killing
Procedure, shortened: as §5

[15] = test system: S. saprophyticus ATCC 15305; assay: Minimal Bactericidal Concentration (MBC); assay type: cell-based; details: Staphylococcus saprophyticus, ATCC15305; S. saprophyticus ATCC 15305; 99.9% killing; read-out: MBC
Procedure, shortened: as §5

A. baumannii ATCC 19606 = assay: MIC broth microdilution (NCCLS); assay type: cell-based, Acinetobacter baumannii; details: Acinetobacter baumannii, ATCC19606, read-out: MIC
Procedure, shortened: as §1

[16] = test system: Y. enterocolytica ATCC 23715; assay: MIC broth microdilution (NCCLS); assay type: cell-based, Yersinia enterocolytica; details: Yersinia, ATCC23715, read-out: MIC
Procedure, shortened: as §1

[17] = Escherichia coli, ATCC25922, E. coli ATCC 25922 (Reference), read-out: MIC

SMILES: CC1(C)S[C@@H]2[C@H](NC(=O)[C@H](N)c3ccccc3)C(=O)N2[C@H]1C(=O)O [Ampicillin]
- MIC [1]: 64 mg/L (≈ 183 µM)
- MIC (E. faecalis ATCC 29212): 1 mg/L (≈ 2.86 µM)
- MIC (S. aureus ATCC 29213): 1 to 2 mg/L (≈ 2.86 to 5.72 µM)
- MIC (H. influenzae ATCC 49766 [2]): ≤ 0.12 mg/L
- MIC (H. influenzae ATCC 49247 [3]): 2 to 4 mg/L (≈ 5.72 to 11.4 µM)
- MIC (B. catarrhalis ATCC 8176 [4]): ≤ 0.03 mg/L
- MIC (E. coli MC4100): 4 mg/L (≈ 11.4 µM)
- MIC (S. aureus MRSA COL): 8 mg/L (≈ 22.9 µM)
- MIC (E. coli Ec022c (EIEC)): > 64 mg/L
- MIC [5]: 2 mg/L (≈ 5.72 µM)
- MIC (E. coli Ec118c (EIEC)): > 64 mg/L
- MIC [6]: 2 to 4 mg/L (≈ 5.72 to 11.4 µM)
- MIC (E. coli Ec117c (EIEC)): 16 mg/L (≈ 45.8 µM)
- MIC (E. coli Ec119c (EIEC)): > 64 mg/L
- MIC (E. coli Ec027c (EIEC)): > 64 mg/L
- MIC [7]: 2 to 4 mg/L (≈ 5.72 to 11.4 µM)
- MBC (B. catarrhalis ATCC 8176 [8]): ≤ 0.03 mg/L
- MIC [9]: 0.12 mg/L (≈ 0.343 µM)
- MIC (E. faecium ATCC 35667): 1 mg/L (≈ 2.86 µM)
- MBC (H. influenzae ATCC 49766 [10]): ≤ 0.12 mg/L
- MBC (H. influenzae ATCC 49247 [11]): 4 mg/L (≈ 11.4 µM)
- MIC (E. coli ATCC 25922 [12]; E. coli ATCC 25922 (Reference)): 4 mg/L (≈ 11.4 µM)
- MIC (E. coli ATCC 25922 [12]; [17]): 4 to 8 mg/L (≈ 11.4 to 22.9 µM)

SMILES: O=C(N[C@H](CO)[C@H](O)c1ccc([N+](=O)[O-])cc1)C(Cl)Cl [Chloramphenicol]
- MIC [1]: 8 mg/L (≈ 24.8 µM)
- MIC (E. faecalis ATCC 29212): 8 mg/L (≈ 24.8 µM)
- MIC (S. aureus ATCC 29213): 16 mg/L (≈ 49.5 µM)
- MIC (C. jejuni ATCC 33291; C. jejuni ATCC 33291, MHBCA with 2% laked horse blood, 5% CO2, read-out: MIC): 4 mg/L (≈ 12.4 µM)
- MIC [13]: 0.001 mg/L (≈ 0.00309 µM)
- MIC (S. aureus MRSA COL): 8 mg/L (≈ 24.8 µM)
- MIC [9]: 4 to 8 mg/L (≈ 12.4 to 24.8 µM)
- MIC (B. fragilis ATCC 25285; ATCC25285, B. fragilis ATCC 25285, Wilkins Chalgren broth, anaerobic, 48 hours, read-out: MIC): 4 mg/L (≈ 12.4 µM)
- MIC (E. faecium ATCC 35667): 8 mg/L (≈ 24.8 µM)
- MBC (E. coli ATCC 25922 [14]): 16 mg/L (≈ 49.5 µM)
- MBC [15]: 16 to 32 mg/L (≈ 49.5 to 99 µM)
- MIC (E. coli ATCC 25922 [12]; [17]): 4 mg/L (≈ 12.4 µM)

SMILES: C[C@@H](O)[C@H]1C(=O)N2C(C(=O)O)=C(SCCN=CN)C[C@H]12 [Imipenem]
- MIC [1]: 0.008 to 0.015 mg/L (≈ 0.0267 to 0.0501 µM)
- MIC (A. baumannii ATCC 19606): 16 mg/L (≈ 53.4 µM)
- MIC (E. faecalis ATCC 29212): 0.5 mg/L (≈ 1.67 µM)
- MIC (S. aureus ATCC 29213): 0.015 mg/L (≈ 0.0501 µM)
- MIC (C. jejuni ATCC 33291): 0.125 mg/L (≈ 0.418 µM)
- MIC (S. aureus MRSA COL): 16 mg/L (≈ 53.4 µM)
- MIC [16]: 0.5 mg/L (≈ 1.67 µM)
- MIC [9]: 0.03 mg/L (≈ 0.1 µM)
- MIC (B. fragilis ATCC 25285; ATCC25285, 48 h): 0.125 to 0.5 mg/L (≈ 0.418 to 1.67 µM)
- MIC (E. faecium ATCC 35667): 2 mg/L (≈ 6.68 µM)
- MBC [15]: 0.03 to 0.06 mg/L (≈ 0.1 to 0.2 µM)
- MIC (E. coli ATCC 25922 [12]; [17]): 0.12 mg/L (≈ 0.401 µM)

SMILES: O=[N+]([O-])c1ccc(C=Cc2nc(Nc3cccc(O)c3)c3cc(F)ccc3n2)o1 [VI, 6-fluoro-2-[2-(5-nitro-2-furyl)vinyl]-4-(m-hydroxyanilino)-quinazoline]
- melting point: 241 to 242 °C (dec.)
